This passage reports TGI and GI50 results from PubChem BioAssay (NCI).

Each structure is given as a SMILES string. Where “and” joins values, the source holds several entries; their conditions need not be identical. Identical values can stand only once.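 Five concentrations, 48 hours, 96-well plates. Abbreviation: GI50, concentration required for 50% inhibition of growth. At the TGI there is no net growth.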 Where only a bound is given, the exact number is not on record here.

Test systems include MDA-MB-435; DU-145 prostate; NCI/ADR-RES ovarian; MDA-N; PC-3 prostate; T-47D breast; MDA-MB-231 breast; XF 498 CNS; DLD-1 colon; SNB-78 CNS; LXFL 529 NSCLC; M19-MEL melanoma; 786-0 renal; DMS 114 small cell lung.
Assay in all cases: NCI-60 cell line screen, 48 h

Consider `CCCCC(CC)C(=O)Oc1ccc(C(=O)c2ccccc2)c(O)c1` (configuration not stated), for which the TGI with MDA-MB-435, with DU-145 prostate, in the test with NCI/ADR-RES ovarian, in the test on MDA-N, in the test with PC-3 prostate and in the test on T-47D breast was greater than 100 µM throughout. The TGI in the test with MDA-MB-231 breast was greater than 100 µM.

For `C[C@@]12CC[C@@H](O)C[C@@H]1CC[C@H]1[C@H]2CC[C@@]2(C)[C@H](c3ccc(=O)oc3)CC[C@@]12O`, the GI50 in the test on MDA-MB-435 is less than 0.01 µM; with DU-145 prostate it was less than 0.01 µM; in the test with NCI/ADR-RES ovarian it was less than 0.01 µM; in the test on PC-3 prostate, less than 0.01 µM; with T-47D breast, less than 0.01 µM; in the test with MDA-MB-231 breast it was 0.0192 µM. Further, the TGI in the test with MDA-MB-435 was determined as 0.0587 µM; with DU-145 prostate it was 0.0168 µM; with NCI/ADR-RES ovarian it was 0.0285 µM; in the test on PC-3 prostate it was 0.0209 µM; with T-47D breast it was 0.0577 µM; in the test with MDA-MB-231 breast it was 0.116 µM.

`CCOC(=O)c1sc2nc(SC)nc3c2c1NC(=O)CN3c1ccc(F)cc1`: the TGI with MDA-MB-435 is greater than 100 µM; with DU-145 prostate, 97.9 µM; with MDA-N it was greater than 100 µM; in the test on PC-3 prostate, 37 µM; in the test on MDA-MB-231 breast, greater than 100 µM.

`CCCCCCCCCCCCCCCCCCN(C)CC(COC)OP(=O)([O-])OCC[N+](C)(C)C` (configuration not stated): the TGI with MDA-MB-435 came to 17.4 µM; with XF 498 CNS, 16.8 µM; in the test with DLD-1 colon, 12.8 µM; in the test on DU-145 prostate, 5.13 µM; with SNB-78 CNS, 13.4 µM; with LXFL 529 NSCLC, 7.98 µM. For the same molecule, the TGI in the test on M19-MEL melanoma is 10.1 µM; in the test on NCI/ADR-RES ovarian it was 33.3 µM; with 786-0 renal it was 2.57 µM; in the test with MDA-N, 15.3 µM; in the test on PC-3 prostate it was 1.47 µM; in the test on T-47D breast, 32.7 µM. The molecule further gave a TGI in the test with DMS 114 small cell lung of 9.75 µM.

For the molecule `O=C1c2cc3c(cc2[C@@H]2C(O)[C@H]4O[C@H]4C4CCN1C42)OCO3` (some centres not stated), the TGI in the test on XF 498 CNS, in the test on LXFL 529 NSCLC and in the test on DMS 114 small cell lung was greater than 37.5 µM throughout.

For the molecule `Cc1ccc(C(=O)NC2C(=O)NC(C(C)C)C(=O)N3CCCC3C(=O)N(C)CC(=O)N(C)C(C(C)C)C(=O)OC2C)c2c1Oc1c(c(C(=O)NC3C(=O)NC(C(C)C)C(=O)N4CCCC4C(=O)N(C)CC(=O)N(C)C(C(C)C)C(=O)OC3C)c3nc(-c4ccccc4)c(=O)oc3c1C)N2` (configuration not stated), the TGI was 0.0193 µM with MDA-MB-435; 2.59 µM and 2.37 µM in the test on NCI/ADR-RES ovarian; 0.0236 µM with MDA-N; 0.544 µM and 0.129 µM in the test on PC-3 prostate; 0.168 µM with T-47D breast; 0.221 µM and 0.129 µM in the test on MDA-MB-231 breast. In addition, the GI50 in the test on NCI/ADR-RES ovarian is 0.0856 µM.

In the case of `c1ccc(-c2cc3nc4ccccc4nc3cc(-c3ccccc3)[nH][nH]2)cc1`, the TGI with MDA-MB-435, in the test with DU-145 prostate, in the test on NCI/ADR-RES ovarian, in the test on 786-0 renal, in the test on MDA-N and with PC-3 prostate was greater than 100 µM in each case. Moreover, the TGI in the test on T-47D breast and with MDA-MB-231 breast was greater than 100 µM in each case.

`Nc1[nH]c(=O)nc2c1cnn2COCCO`: the TGI in the test with XF 498 CNS, in the test on DLD-1 colon, in the test on SNB-78 CNS, in the test on LXFL 529 NSCLC and with DMS 114 small cell lung was greater than 100 µM each time.

On to `C/C=C\C1OC1(C)c1cc(=O)c2c(C)cc3c(c2o1)C(=O)c1c(O)c(C2CC(C)(N(C)C)C(OC(C)=O)C(C)O2)cc(C2CC(N(C)C)C(O)C(C)O2)c1C3=O` (configuration not stated), for which the TGI in the test with MDA-MB-435 came out at 0.0103 µM; in the test with DU-145 prostate it was 0.0912 µM; in the test on 786-0 renal, 0.0158 µM; with MDA-N, 0.00857 µM; in the test with PC-3 prostate, 0.0131 µM; in the test with T-47D breast, 0.0324 µM. In the test with MDA-MB-231 breast, this molecule displayed a TGI of 0.0285 µM.

Regarding `CC1CC(C)(O)C2C3(C)CCCC2(COC3=O)C12CCC1(CCOC1=O)O2` (configuration not stated), the TGI in the test with XF 498 CNS was greater than 39.6 µM; with DLD-1 colon, greater than 250 µM; in the test on SNB-78 CNS it was greater than 250 µM; with M19-MEL melanoma, greater than 250 µM; in the test on NCI/ADR-RES ovarian, greater than 250 µM; in the test with DMS 114 small cell lung, greater than 250 µM.

With `COc1cc2cc(C(=O)N3CC(CCl)c4ccc(NO)cc43)[nH]c2c(OC)c1OC` (configuration not stated), the TGI with MDA-MB-435 was 0.481 µM; in the test on DU-145 prostate, greater than 31 µM; in the test on NCI/ADR-RES ovarian, 0.48 µM; with MDA-N, 0.727 µM; with PC-3 prostate it was 2.05 µM; in the test with T-47D breast, greater than 42.6 µM.

As for `CCOC(=O)C(C(=O)OCC)c1cc(-c2cc3ccccc3o2)oc(=O)c1C#N`, the TGI with XF 498 CNS was 36.3 µM; in the test with SNB-78 CNS it was 73.4 µM; with LXFL 529 NSCLC it was 41.8 µM; in the test on DMS 114 small cell lung, 67.1 µM.

In the case of `CC(C)N(CC(=O)O)CC(=O)O`, the TGI with MDA-MB-435, with DU-145 prostate, with NCI/ADR-RES ovarian, with 786-0 renal, in the test with MDA-N and with PC-3 prostate was greater than 100 µM in each case. Also, the TGI with T-47D breast and in the test with MDA-MB-231 breast was greater than 100 µM in each case.

Take `O=C(O)C1=C(CO)Oc2cc3c(cc2C1c1ccc2c(c1)OCO2)OCO3` (configuration not stated): the TGI with XF 498 CNS, in the test with DLD-1 colon, with SNB-78 CNS, in the test with M19-MEL melanoma and in the test on DMS 114 small cell lung was greater than 100 µM throughout.

Consider `O=P1(Oc2ccc(Cl)cc2Cl)Oc2cc3ccccc3cc2O1`, for which the TGI in the test with XF 498 CNS is greater than 100 µM; with DLD-1 colon, greater than 100 µM; with SNB-78 CNS, greater than 100 µM; with NCI/ADR-RES ovarian, greater than 100 µM; in the test with DMS 114 small cell lung, greater than 89.3 µM.

Turning to `C=C(C)[C@@H]1CC[C@]2(C(=O)O)CC[C@]3(C)[C@H](CC[C@@H]4[C@@]5(C)C/C(=C/c6ccco6)C(=O)C(C)(C)[C@@H]5CC[C@]43C)[C@@H]12`, the GI50 in the test with MDA-MB-435 is 3.55 µM; in the test with DU-145 prostate, 3.07 µM; in the test on T-47D breast, 3.2 µM. The results for the TGI in the test with MDA-MB-435, in the test on DU-145 prostate and in the test on T-47D breast were greater than 100 µM, 12.2 µM and 33.3 µM, respectively.
